Results reported in patent US20240400591A1 (Jacobio Pharmaceuticals Co., Ltd., priority 2021, published 2024).
pEC50, pIC50: −log10 of the molar value. Read-outs that look alike come from different tables or passages of the source.

Experiments:
NUGC3 (P53 Y220C) = experiment: Cell viability assay (CellTiter-Glo, 6 days), NUGC3; type: cell-based; conditions: cell viability, 6 days, CellTiter-Glo, read-out: NUGC3 (P53 Y220C) IC50
Method: (§1) Cells were collected and counted. A desired number of cells was seeded into 96-well microplate and cultured in 37° C. cell incubator overnight. Compounds dissolved in cell culture medium were added into cell plate and cultured for 6 days. After balancing CellTiter-Glo reagent and cells at room temperature for 30 min, equal volume of CellTiter-Glo reagents was added to assay plate and shaken for 2 min for cell lysis. The cells were balanced at room temperature for 10 minutes and Luminescence signal was read using Envision. The percent of cell viability for compounds treated wells were normalized between High control and low control. Wells containing cell culture medium and same percentage DMSO sewved as Low control. Wells containing cells and same percentage DMSO sewved as High control. Cell viability (%)=(Luminescence readoutCompound treated−Luminescence readoutLow control)/(Luminescence readoutHigh control−Luminescence readoutLow control)*100%. Then the data were analyzed either by fitting a 4-parameter logistic model or by Excel to calculate IC50 values. And the IC50 was the concentration at 50% Cell viability on the curve.

NUGC4 (P53 WT) = experiment: Cell viability assay (CellTiter-Glo, 6 days), NUGC4; type: cell-based; conditions: cell viability, 6 days, CellTiter-Glo, read-out: NUGC4 (P53 WT) IC50
Method: as §1

[1] = test system: NUGC-3_P53_Luc single clonal cell line (p53 Y220C); experiment: Reporter gene assay (p53 RE luciferase); type: cell-based; conditions: Homo sapiens, luciferase reporter, 6 hours, normalized to Ref-1a (10 μM) high control, read-out: p53(Y220C)_NUGC-3 EC50
Method: NUGC-3_P53_Luc single clonal cell line was established using pGL4.38[luc2P/p53 RE/Hygro] Vector (E365A, promega). NUGC-3_P53-Luc single clonal cells were cultured in 37° C. cell incubator before use. NUGC-3-P53-Luc cells were collected and washed twice with PBS to remove phenol red and then resuspended in medium to a proper concentration. Tested compound dilutions were transferred into 384 well assay plates (PerkinElmer). A desired number of cells was seeded into the assay plate and cultured for 6 hours at 37° C. cell incubator. Britelite plus Luciferase Assay Reagent were added into each well and the luminescence value was recorded on Envision. The percent of activity value of compounds treated wells was normalized between high control and low control. Wells containing cells and Ref-1a (10 μM) sewved as high control, and wells containing cells and same percentage of DMSO sewved as low control. Activity value (%)=(Luminescence readoutCompound treated−Luminescence readoutLow control)/(Luminescence readoutHigh control−Luminescence readoutLow control)*100%. Then the data were analyzed either by fitting a 4-parameter logistic model or by Excel to calculate EC50 values and the EC50 was the concentration at 50% Activity on the curve.

[2] = target: T1, His-p53 Y220C (94-294) protein (Homo sapiens, UniProt P04637, Y220C); experiment: In vitro DNA binding assay (HTRF); type: biochemical; conditions: % activation normalized to 2 μM Ref-1a high control
T1 construct: His-p53 Y220C (94-294) protein

Structure (SMILES): CN1CCC(Nc2cccc3c(CC(F)(F)F)c(C#CCNc4ccc(P(C)(C)=O)cc4OC4CC4)sc23)[C@@H](F)C1 (stereo in doubt) [Example 106, (3-cyclopropoxy-4-((3-(7-(((Z)-3-fluoro-1-methylpiperidin-4-yl)amino)-3-(2,2,2-trifluoroethyl)benzo[b]thiophen-2-yl)prop-2-yn-1-yl)amino)phenyl)dimethylphosphine oxide]
- pIC50 (NUGC3 (P53 Y220C); Homo sapiens, NUGC-3, 144 h): 6.11
- pIC50 (NUGC4 (P53 WT); Homo sapiens, NUGC-4, 144 h): 5.42
- pEC50 ([1]; NUGC-3, 6 h): 7.05

Structure (SMILES): CN1CC[C@@H](Nc2cccc3c(CC(F)(F)F)c(C#CCNc4ccc(P(C)(C)=O)cc4C(=O)NC4COC4)sc23)[C@@H](F)C1 [Example 217, 5-(dimethylphosphoryl)-2-((3-(7-(((3S,4R)-3-fluoro-1-methylpiperidin-4-yl)amino)-3-(2,2,2-trifluoroethyl)benzo[b]thiophen-2-yl)prop-2-yn-1-yl)amino)-N-(oxetan-3-yl)benzamide]
- pIC50 (NUGC3 (P53 Y220C); Homo sapiens, NUGC-3, 144 h): 6.49
- pIC50 (NUGC4 (P53 WT); Homo sapiens, NUGC-4, 144 h): 4.81
- pEC50 ([1]; NUGC-3): 6.82

Structure (SMILES): CN1CC[C@@H](Nc2cccc3c(CC(F)(F)F)c(C#CCNc4ccc(P(C)(C)=O)cc4-c4cc[nH]n4)sc23)[C@@H](F)C1 [Example 200, (4-((3-(7-(((3S,4R)-3-fluoro-1-methylpiperidin-4-yl)amino)-3-(2,2,2-trifluoroethyl)benzo[b]thiophen-2-yl)prop-2-yn-1-yl)amino)-3-(1H-pyrazol-3-yl)phenyl)dimethylphosphine oxide]
- pEC50 [2]: 7.60
- pIC50 (NUGC4 (P53 WT); Homo sapiens, NUGC-4, 144 h): 4.88
- pEC50 ([1]; NUGC-3, 6 h): 7.22

Structure (SMILES): COc1cc(P(C)(C)=O)ccc1NCC#Cc1sc2c(NC3CCN(C)CC3C(F)(F)F)cccc2c1CC(F)(F)F (racemic) [Example 170, (3-methoxy-4-((3-(7-(((E)-1-methyl-3-(trifluoromethyl)piperidin-4-yl)amino)-3-(2,2,2-trifluoroethyl)benzo[b]thiophen-2-yl)prop-2-yn-1-yl)amino)phenyl)di methylphosphine oxide (racemic)]
- pEC50 [2]: 7.12
- pIC50 (NUGC3 (P53 Y220C)): 5.79
- pIC50 (NUGC4 (P53 WT)): 5.43

Structure (SMILES): COc1cc(P(C)(C)=O)ccc1NCC#Cc1sc2c(NC3CCN(C)CC3C(F)(F)F)cccc2c1CC(F)(F)F (racemic) [Example 169, (3-methoxy-4-((3-(7-(((Z)-1-methyl-3-(trifluoromethyl)piperidin-4-yl)amino)-3-(2,2,2-trifluoroethyl)benzo[b]thiophen-2-yl)prop-2-yn-1-yl)amino)phenyl)dimethylphosphine oxide]
- pEC50 [2]: 7.15
- pIC50 (NUGC3 (P53 Y220C); Homo sapiens, NUGC-3, 144 h): 5.79
- pIC50 (NUGC4 (P53 WT); Homo sapiens, NUGC-4, 144 h): 5.36

Structure (SMILES): COc1cc(C(=O)NC2CCN(C)CC2)ccc1NCC#Cc1sc2c(NC3CCN(C)CC3F)cccc2c1CC(F)(F)F (racemic) [Example 47, 4-((3-(7-((3-fluoro-1-methylpiperidin-4-yl)amino)-3-(2,2,2-trifluoroethyl)benzo[b]thiophen-2-yl)prop-2-yn-1-yl)amino)-3-methoxy-N-(1-methylpiperidin-4-yl)benzamide]
- pEC50 [2]: 7.70

Structure (SMILES): COc1cc(C(=O)N2CCOCC2)ccc1NCC#Cc1sc2c(NC3CCN(C)CC3F)cccc2c1CC(F)(F)F (centres unmarked) [Example 50, (4-((3-(7-(((Z)-3-fluoro-1-methylpiperidin-4-yl)amino)-3-(2,2,2-trifluoroethyl)benzo[b]thiophen-2-yl)prop-2-yn-1-yl)amino)-3-methoxyphenyl)(morpholino)methanone]
- pEC50 [2]: 7.07

Structure (SMILES): COc1cc(C(=O)N2CCS(=O)(=O)CC2)ccc1NCC#Cc1sc2c(N[C@H]3CCN(C)C[C@H]3F)cccc2c1CC(F)(F)F (racemic) [Example 48, (1,1-dioxidothiomorpholino)(4-((3-(7-(((3R,4S)-3-fluoro-1-methylpiperidin-4-yl)amino)-3-(2,2,2-trifluoroethyl)benzo[b]thiophen-2-yl)prop-2-yn-1-yl)amino)-3-methoxyphenyl)methanone]
- pEC50 [2]: 7.08

Structure (SMILES): COc1cc(P(C)(C)=O)ccc1NCC#Cc1sc2c(N[C@H]3CCN(C)C[C@@H]3F)cccc2c1-c1ccc(F)cc1 (racemic) [Example 139, (4-((3-(7-(((E)-3-fluoro-1-methylpiperidin-4-yl)amino)-3-(4-fluorophenyl)benzo[b]thiophen-2-yl)prop-2-yn-1-yl)amino)-3-methoxyphenyl)dimethylphosphine oxide]
- pEC50 [2]: 5.91

Structure (SMILES): COc1cc(P(C)(C)=O)ccc1NCC#Cc1sc2c(NC[C@@]34CCCN3C[C@H](F)C4)cccc2c1CC(F)(F)F [Example 70, (4-((3-(7-((((2R,7aS)-2-fluorotetrahydro-1H-pyrrolizin-7a(5H)-yl)methyl)amino)-3-(2,2,2-trifluoroethyl)benzo[b]thiophen-2-yl)prop-2-yn-1-yl)amino)-3-methoxyphenyl)dimethylphosphine oxide]
- pEC50 [2]: 6.64

Structure (SMILES): COc1cc(S(C)(=O)=O)ccc1NCC#Cc1cc2c(N[C@H]3CC[C@@H](N4CC5(COC5)C4)CC3)cccc2n1CC(F)(F)F [Example 39, Cis-N-(4-(2-oxa-6-azaspiro[3.3]heptan-6-yl)cyclohexyl)-2-(3-((2-methoxy-4-(methylsulfonyl)phenyl)amino)prop-1-yn-1-yl)-1-(2,2,2-trifluoroethyl)-1H-indol-4-amine]
- pEC50 [2]: 6.80

Structure (SMILES): COc1cc(C(=O)N2CCN(C)CC2)ccc1NCC#Cc1sc2c(NC3CCN(C)CC3F)cccc2c1CC(F)(F)F (centres unmarked) [Example 49, (4-((3-(7-(((Z)-3-fluoro-1-methylpiperidin-4-yl)amino)-3-(2,2,2-trifluoroethyl)benzo[b]thiophen-2-yl)prop-2-yn-1-yl)amino)-3-methoxyphenyl)(4-methylpiperazin-1-yl)methanone]
- pEC50 [2]: 7.42

Structure (SMILES): COc1nc(C(N)=O)ccc1NCC#Cc1sc2c(NC3CCN(C)CC3F)cccc2c1CC(F)(F)F (centres unmarked) [Example 63, 5-((3-(7-(((Z)-3-fluoro-1-methylpiperidin-4-yl)amino)-3-(2,2,2-trifluoroethyl)benzo[b]thiophen-2-yl)prop-2-yn-1-yl)amino)-6-methoxypicolinamide]
- pEC50 [2]: 6.66

Structure (SMILES): CNC(=O)c1ccc(NCC#Cc2sc3c(N[C@@H]4CCN(C)C[C@@H]4F)cccc3c2CC(F)(F)F)c(C#N)c1 (racemic) [Example 95, 3-cyano-4-((3-(7-(((Z)-3-fluoro-1-methylpiperidin-4-yl)amino)-3-(2,2,2-trifluoroethyl)benzo[b]thiophen-2-yl)prop-2-yn-1-yl)amino)-N-methylbenzamide]
- pEC50 [2]: 6.88

Structure (SMILES): COc1cc(P(C)(C)=O)ccc1NCC#Cc1sc2c(NC3CCN(C)CC3C#N)cccc2c1CC(F)(F)F (centres unmarked) [Example 90, 4-((2-(3-((4-(dimethylphosphoryl)-2-methoxyphenyl)amino)prop-1-yn-1-yl)-3-(2,2,2-trifluoroethyl)benzo[b]thiophen-7-yl)amino)-1-methylpiperidine-3-carbonitrile]
- pEC50 [2]: 6.57

Structure (SMILES): COc1cc(P(C)(C)=O)ccc1NCC#Cc1sc2c(NC3CCN(C)CC3)ccnc2c1CC(F)(F)F [Example 71, (3-methoxy-4-((3-(7-((1-methylpiperidin-4-yl)amino)-3-(2,2,2-trifluoroethyl)thieno[3,2-b]pyridin-2-yl)prop-2-yn-1-yl)amino)phenyl)dimethylphosphine oxide]
- pEC50 [2]: 5.99

Structure (SMILES): COc1cc(S(C)(=O)=O)c(F)cc1NCC#Cc1sc2c(NC3CCN(C)CC3)cccc2c1CC(F)(F)F [Example 7, N-(2-(3-((5-fluoro-2-methoxy-4-(methylsulfonyl)phenyl)amino)prop-1-yn-1-yl)-3-(2,2,2-trifluoroethyl)benzo[b]thiophen-7-yl)-1-methylpiperidin-4-amine]
- pEC50 [2]: 6.70

Structure (SMILES): COc1cc(S(C)(=O)=O)ccc1NCC#Cc1sc2c(NC3CCCN(C)CC3)cccc2c1CC(F)(F)F (centres unmarked) [Example 55, N-(2-(3-((2-methoxy-4-(methylsulfonyl)phenyl)amino)prop-1-yn-1-yl)-3-(2,2,2-trifluoroethyl)benzo[b]thiophen-7-yl)-1-methylazepan-4-amine]
- pEC50 [2]: 6.91

Structure (SMILES): COc1cc(P(C)(C)=O)ccc1NCC#Cc1sc2c(NC3CCN(C)CC3F)cccc2c1-c1cncs1 (centres unmarked) [Example 116, (4-((3-(7-(((Z)-3-fluoro-1-methylpiperidin-4-yl)amino)-3-(thiazol-5-yl)benzo[b]thiophen-2-yl)prop-2-yn-1-yl)amino)-3-methoxyphenyl)dimethylphosphine oxide]
- pEC50 [2]: 5.29
